“Also recorded” adds a separate entry of the source.
Columns and labels:
P. falciparum strain Dd2 = experiment: Stage specificity assay; type: cell-based; settings: for Stage specific action, treated at early ring stage: 400 nM (5×EC50) at 6 hours post infection for 12 hours
Method: Asexual stage P. falciparum cultures were synchronized by MACS magnetic column, followed 3 hours later by treatment with 5% sorbitol to select for rings. Six hours after invasion, parasites were plated onto a 96-well plate at 1% parasitemia and 1% hematocrit, maintained at 37° C. in 5% CO2, and compound was added at 5×EC50 to the 6 HPI wells. Every 12 hours, until reinvaded rings (54 HPI), thin blood smear slides for Giemsa-stain were taken, and samples were washed and fixed in 4% paraformaldehyde in PBS with 0.04% glutaraldehyde. At the conclusion of the timepoints, all samples were permeabilized with 0.25% Triton X-100 before being treated with 50 μg/mL RNase A and stained with 500 nM YOYO-1. Samples were then washed, and flow cytometric analysis was performed with a CytoFLEX S™, collecting 100,000 events per sample. Analysis was performed with FlowJo™ software Version 10.
The stage specific action of the prioritized hits was determined as follows. Synchronized cultures of P. falciparum strain Dd2 were exposed to 400 nM (5×EC50) compound at 6 hours post infection for 12 hours and fixed samples labeled with YOYO-1 dye were analyzed by flow cytometry and microscopy using Giemsa-stained thin smears.

[1] = tested on: P. berghei luc sporozoites (Pb-Luc); experiment: Prophylaxis assay, single IV dose 6 hours before Pb-Luc sporozoite infection; type: in vivo, mice
Method: (§1) TL5-135 was dissolved or resuspended in a suspending vehicle consisting of 30% DMSO, 1% methylcellulose, 0.5% TWEEN-80, and 68.5% ultrapure water. GNF179 was resuspended in 30% DMSO, 30% PEG400, 5% TWEEN-80, 35% saline, and administered intravenously.
(§2) For prophylaxis assays, a single dose of […] was administrated 6 hours before infection. For therapeutic assays, in a 4-day's Peters test, 4 doses (each 15 mg/kg) were administrated 6, 18, 30, and 42 hours post infection.
(§3) The antimalarial activity was measured as a percent reduction in parasitemia from day one until day twelve post-infection.
Infection was initiated using 100,000 P. berghei luc sporozoites (Pb-Luc). The drugs were administered IV at 50 mg/kg, single dose 6 hours prior. I: infected, UI: uninfected.
(§4) Groups of 5 mice were infected with 100,000 Pb-Luc sporozoites by IV injection. Prophylactic (single dose of 50 mg/kg through IV injection, 6 hour before infection) and therapeutic (4-day Peters test, 4 doses of 15 mg/kg each time were administrated post-infection at 6, 18, 30, and 42 hours post infection (hpi) and the activity of the compounds was evaluated. See FIG. 8A. The parasitemia was estimated after flow cytometric enumeration of rodent malaria parasite Pb-Luc-infected red blood cells (RBS) stained with SYBR Green I, from day 3 until 20.
(§5) TL5-135 and GNF179 antimalarial compounds were tested against Pb-Luc sporozoites. Prophylactic activity (single dose of 15 mg/kg through an IV injection, 6 hours before infection) and therapeutic activity (4-day Peters test, 4 doses of 15 mg/kg each time was administrated at 6, 18, 30, and 42 hpi of the TL5-135 antimalarial compound was evaluated. As before, groups of five mice were infected with 100,000 Pb-Luc sporozoites by IV injection. The parasitemia was estimated after flow cytometric enumeration of rodent malaria parasite Pb-Luc-infected red blood cells (RBS) stained with SYBR Green I, from day 3 until day 20. See FIG. 8B.

[2] = tested on: P. berghei luciferase expressing parasites; experiment: Liver stage assay with luciferase expressing parasites; type: cell-based; settings: Plasmodium berghei, read-out: Liver Stage EC50 (nM) ± SD
Method: P. falciparum Dd2 EC50 was determined using SYBR Green I assay. For the selectivity index ([…]) cytotoxicity was determined using CellTiter 96® AQueous MTS. The liver stage assay was performed using P. berghei luciferase expressing parasites. All assays were performed with technical quadruplicates and 3 biological replicates. Assays have a Z′ factor >0.7.

recombinant human EPHA2 = recombinant human EPHA2 (Homo sapiens (Human), UniProt P29317); experiment: Z′-LYTE FRET-based in vitro biochemical kinase assay; settings: recombinant human EPHA2 expressed in insect cells; read-out: Human EPHA2 IC50 (nM) ± SD
Method: Several analogs were synthesized based on the structure of TL5-135 for further study. […] For the data in Table 1, compounds were subjected to in vitro biochemical kinase assays done using recombinant human ephrin type-A receptor 2 (EPHA2) (expressed in insect cells) in a Z′-LYTE® FRET-based kinase assay. P. falciparum Dd2 EC50 was determined using the standard 72 hour SYBR Green I assay (Dd2 Proliferation Assay) as known in the art. […] The structures of compoundsTL5-134, TL5-139, and TL5-145 are shown below.
In vitro biochemical kinase assays were done using recombinant human EPHA2 (expressed in insect cells) in a Z′-LYTE® FRET-based kinase assay. P. falciparum Dd2 EC50 was determined using the standard 72 h SYBR Green I assay.

Pb-Luc sporozoites = experiment: Therapeutic assay, 4-day Peters test against Pb-Luc sporozoites; type: in vivo, mice; settings: therapeutic, 4 doses of 15 mg/kg
Method: as §1, §2, §3
However, the mice treated with TL5-135 as a therapeutic had about 2.4% parasitemia after 12 days post-infection (all negative control mice died between days 11-13). The parasitemia on day 21 (21 days post-infection) for the group of mice was 35%.
as §4, §5

P. berghei ANKA = experiment: Treatment of established P. berghei ANKA luciferase infection in mice, IVIS imaging; type: in vivo; settings: 50 mg/kg p.o. once daily for 4 days from 72 hours post-infection; imaging day 7
Method: Mice infected with P. berghei ANKA (10^3 iRBC) expressing luciferase were treated with 50 mg/kg TL5-135 or chloroquine orally once daily 72 hours post-infection for 4 days. Imaging was done 7 days after infection following a 150 mg/kg D-luciferin injection with an IVIS.

Sequence of recombinant human EPHA2 (P29317 24-976): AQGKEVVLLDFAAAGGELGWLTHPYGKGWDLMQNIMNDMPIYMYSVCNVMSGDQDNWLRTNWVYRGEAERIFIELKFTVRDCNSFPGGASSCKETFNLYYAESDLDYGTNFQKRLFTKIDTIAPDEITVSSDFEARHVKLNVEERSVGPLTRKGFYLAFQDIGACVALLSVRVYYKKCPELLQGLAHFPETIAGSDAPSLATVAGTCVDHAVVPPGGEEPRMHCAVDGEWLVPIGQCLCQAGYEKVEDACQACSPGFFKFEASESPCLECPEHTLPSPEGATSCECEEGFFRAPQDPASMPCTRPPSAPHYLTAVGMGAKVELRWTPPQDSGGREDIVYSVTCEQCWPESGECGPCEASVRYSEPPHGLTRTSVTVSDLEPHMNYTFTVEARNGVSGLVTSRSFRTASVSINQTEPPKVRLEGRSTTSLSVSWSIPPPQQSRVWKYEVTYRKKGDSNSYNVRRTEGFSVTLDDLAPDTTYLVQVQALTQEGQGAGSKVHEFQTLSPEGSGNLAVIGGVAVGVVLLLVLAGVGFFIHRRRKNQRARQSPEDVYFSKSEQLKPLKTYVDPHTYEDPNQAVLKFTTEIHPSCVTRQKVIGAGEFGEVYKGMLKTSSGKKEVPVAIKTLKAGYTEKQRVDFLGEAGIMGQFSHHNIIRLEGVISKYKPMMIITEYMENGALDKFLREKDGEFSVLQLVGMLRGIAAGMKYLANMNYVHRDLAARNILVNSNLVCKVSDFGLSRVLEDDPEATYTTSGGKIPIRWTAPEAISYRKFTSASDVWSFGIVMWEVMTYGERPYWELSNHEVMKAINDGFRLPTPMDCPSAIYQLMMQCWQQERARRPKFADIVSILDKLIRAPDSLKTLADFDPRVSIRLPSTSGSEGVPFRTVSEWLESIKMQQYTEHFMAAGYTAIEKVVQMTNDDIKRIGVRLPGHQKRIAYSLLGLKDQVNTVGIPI

## CCN1CCN(Cc2ccc(NC(=O)c3cc(Cl)cc(NC(=O)c4cncc(-c5cccs5)c4)c3)cc2C(F)(F)F)CC1 [TL5-135]
P. falciparum strain Dd2
  Stage specific action, treated at early ring stage: blocks ring to trophozoite maturation
P. falciparum strain Dd2; listed as TL-135
  Stage specific action, treated at early ring stage: block ring to trophozoite maturation
P. falciparum strain Dd2; data not shown
  Stage specific action, added at trophozoite and schizont stages: blocks maturation of asexual parasites
[1]; single dose 15 mg/kg 6 hours before infection, after 22 days
  Condition of mice after prophylactic treatment: still healthy and alive
[1]; single dose 50 mg/kg IV 6 hours prior to infection with 100,000 Pb-Luc sporozoites
  Prophylactic activity: has prophylactic activity; also recorded: prevent infection
[2]
  EC50: 108 ± 35 nM
Recombinant human EPHA2
  IC50: > 10000 nM
Pb-Luc sporozoites; 12 days post-infection
  Parasitemia 12 days post-infection: about 2.4%
Pb-Luc sporozoites; 21 days post-infection
  Parasitemia on day 21: 35%
P. berghei ANKA
  Effect on established P. berghei infection: eliminates established P. berghei ANKA infection; also recorded: eliminate established Plasmodium. berghei infections in mice
